# From publication PMC7178340 (ACS Omega, 2020)
# Test system: VEGFR
# Assay: Cell-based competitive binding assay on U87MG cells
# Design: species or system human
# Conditions: read-out: IC50, competitive binding, competition against [^64Cu]VEGF125–136 (74 kBq/1 mL), competitor 0-10 000 nmol/L, 37 °C, 1 h, γ counter, triplicate
sequence,measurement,value
QKRKRKKSRYKS [VEGF125–136],IC50,0.277 ± 0.00619 µM
